Source: the supplement of paper PMC11061612

Tests used:
Experiment in all cases: combination Emax (second highest fraction inhibited in the dose matrix, 72 h); higher = more inhibition; extreme values may be limits of the assay
[1] = system: PCI-30 (Head and Neck Carcinoma)
Summary of the method: (§1)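 After 24 hours at 37°C and 5% CO2 in 1536-well plates, cells in DMEM/F12 or RPMI plus 10% FBS received two-drug dose matrices for 72 hours. Viability came from CellTiter-Glo 2.0 luminescence and was scaled as inhibition, anchored at 0 by vehicle wells and at 1 by blank wells. Combination Emax is taken as the second-highest inhibition in the matrix, and Bliss excess as the observed combination effect less EA + EB − EA·EB, with EA and EB the single-agent effects.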

[2] = system: RT-112 (Bladder Carcinoma)
Summary of the method: as §1

[3] = system: TE-4 (Esophageal Squamous Cell Carcinoma)
Summary of the method: as §1

HMV-II (Melanoma) = system: HMV-II (Melanoma)
Summary of the method: as §1

[4] = system: CAL-54 (Kidney Carcinoma)
Summary of the method: as §1

[5] = system: 639-V (Bladder Carcinoma)
Summary of the method: as §1

[6] = system: KARPAS-231 (B-Cell Non-Hodgkin's Lymphoma)
Summary of the method: as §1

NCI-H2461 (Mesothelioma) = system: NCI-H2461 (Mesothelioma)
Summary of the method: as §1

[7] = system: NCI-H747 (Colorectal Carcinoma)
Summary of the method: as §1

[8] = system: 8305C (Thyroid Gland Carcinoma)
Summary of the method: as §1

COLO-829 (Melanoma) = system: COLO-829 (Melanoma)
Summary of the method: as §1

[9] = system: SU-DHL-6 (B-Cell Non-Hodgkin's Lymphoma)
Summary of the method: as §1

[10] = system: CTB-1 (B-Cell Non-Hodgkin's Lymphoma)
Summary of the method: as §1

[11] = system: RPMI-6666 (Non-Cancerous)
Summary of the method: as §1

[12] = system: CAL-51 (Breast Carcinoma)
Summary of the method: as §1

Mewo (Melanoma) = system: Mewo (Melanoma)
Summary of the method: as §1

[13] = system: SW1116 (Colorectal Carcinoma)
Summary of the method: as §1

[14] = system: LU-139 (Small Cell Lung Carcinoma)
Summary of the method: as §1

[15] = system: Hs-633T (Other Solid Carcinomas)
Summary of the method: as §1

[16] = system: UMC-11 (Other Solid Carcinomas)
Summary of the method: as §1

SMILES	combination Emax [1]	combination Emax [2]	combination Emax [3]	combination Emax (HMV-II (Melanoma))	combination Emax [4]	combination Emax [5]	combination Emax [6]	combination Emax (NCI-H2461 (Mesothelioma))	combination Emax [7]	combination Emax [8]	combination Emax (COLO-829 (Melanoma))	combination Emax [9]	combination Emax [10]	combination Emax [11]	combination Emax [12]	combination Emax (Mewo (Melanoma))	combination Emax [13]	combination Emax [14]	combination Emax [15]	combination Emax [16]
CN(CCO)CC[C@H](CSc1ccccc1)Nc1ccc(S(=O)(=O)NC(=O)c2ccc(N3CCC([C@@H](O)c4ccccc4-c4ccc(Cl)cc4)CC3)cc2)cc1S(=O)(=O)C(F)(F)F [AZD4320] + CN(C)CCCOc1ccc(-c2ccc3ncc4c(c3c2)n(C2CCOCC2)c(=O)n4C)cn1 [AZD0156] (first compound max 1 µM, 7x7, partner max 1 µM)	0.158	0.188	0.0906	0.157	0.163	0.19	0.997	0.259	0.311	0.559	0.0619	0.986	0.206	0.875	0.16	0.147	0.191	0.923	0.163	0.567
Cc1c2c(nn1C)CSCc1cc(n(C)n1)CSc1cc(c3ccccc3c1)OCCCc1c(C(=O)O)n(C)c3c-2c(Cl)ccc13 [AZD5991] + Cn1cnc2c(F)c(Nc3ccc(Br)cc3Cl)c(C(=O)NOCCO)cc21 [Selumetinib] (first compound max 1 µM, 7x7, partner max 3 µM)	0.198	1	0.453	0.829	0.28	0.283	1	0.359	0.728	0.512	0.907	1	0.203	0.695	0.406	0.475	0.446	0.148	0.64	0.348
C=CCn1c(=O)c2cnc(Nc3ccc(N4CCN(C)CC4)cc3)nc2n1-c1cccc(C(C)(C)O)n1 [AZD1775] + C[C@@H]1COCCN1C2=NC(=NC(=C2)C3(CC3)[S@](=N)(=O)C)C4=C5C=CNC5=NC=C4 [AZD6738] (first compound max 1 µM, partner max 10 µM)	0.696	0.966	0.805	0.495	0.759	0.457	0.98	0.764	0.706	0.681	0.129	0.922	0.944	–	0.936	0.71	0.506	0.721	0.937	0.785
C=CCn1c(=O)c2cnc(Nc3ccc(N4CCN(C)CC4)cc3)nc2n1-c1cccc(C(C)(C)O)n1 [AZD1775] + C1CN(CCC1(C(=O)N[C@@H](CCO)C2=CC=C(C=C2)Cl)N)C3=NC=NC4=C3C=CN4 [Capivasertib] (first compound max 3 µM, partner max 3 µM)	0.477	0.836	0.88	0.592	0.782	0.642	1	0.67	0.623	0.681	0.322	0.994	–	0.921	0.941	0.589	0.48	0.733	0.897	0.696
COc1nnc2ccc(N3CCC(c4ccc(OCCN5CCN(C)C(=O)[C@H]5C)cc4)CC3)nn12 [AZD5153] + C[C@@H]1COCCN1C2=NC(=NC(=C2)C3(CC3)[S@](=N)(=O)C)C4=C5C=CNC5=NC=C4 [AZD6738] (first compound max 1 µM, 7x7, partner max 10 µM)	0.404	0.737	0.898	0.712	0.823	0.813	0.752	0.649	0.809	0.674	0.259	0.968	–	0.834	0.993	0.604	0.432	0.947	0.912	0.912
Cn1cnc2c(F)c(Nc3ccc(Br)cc3Cl)c(C(=O)NOCCO)cc21 [Selumetinib] + C[C@@H]1COCCN1C2=NC(=NC(=C2)C3(CC3)[S@](=N)(=O)C)C4=C5C=CNC5=NC=C4 [AZD6738] (first compound max 10 µM, 7x7, partner max 10 µM)	0.371	0.555	0.791	0.735	0.616	0.464	0.639	0.571	0.776	0.534	0.597	0.405	–	0.804	0.964	0.466	0.476	0.053	0.748	0.603
Cn1cnc2c(F)c(Nc3ccc(Br)cc3Cl)c(C(=O)NOCCO)cc21 [Selumetinib] + CCN(CCO)CCCOc1ccc2c(Nc3cc(CC(=O)Nc4cccc(F)c4)[nH]n3)ncnc2c1 [AZD2811] (first compound max 10 µM, 7x7, partner max 1 µM)	0.233	0.456	0.422	0.717	0.382	0.342	0.609	0.397	0.793	0.438	0.506	0.385	–	0.557	0.479	0.444	0.534	0.247	0.486	0.818
Cn1cnc2c(F)c(Nc3ccc(Br)cc3Cl)c(C(=O)NOCCO)cc21 [Selumetinib] + CC(C)n1c(=O)n(C)c2cnc3cc(F)c(-c4ccc(OCCCN5CCCCC5)nc4)cc3c21 [AZD1390] (first compound max 10 µM, 7x7, partner max 0.3 µM)	0.203	0.353	0.226	0.719	0.346	0.238	0.225	0.337	0.702	0.379	0.481	0.265	–	0.368	0.157	0.403	0.502	0.0318	0.433	0.0797
COc1nnc2ccc(N3CCC(c4ccc(OCCN5CCN(C)C(=O)[C@H]5C)cc4)CC3)nn12 [AZD5153] + CC1(C)CCC(CN2CCN(c3ccc(C(=O)NS(=O)(=O)c4ccc(NCC5CCOCC5)c([N+](=O)[O-])c4)c(Oc4cnc5[nH]ccc5c4)c3)CC2)=C(c2ccc(Cl)cc2)C1 [Venetoclax] (first compound max 1 µM, 7x7, partner max 1 µM)	0.344	0.239	0.27	0.524	0.769	0.582	1	0.517	0.702	0.524	0.226	1	–	0.764	0.673	0.563	0.353	0.948	0.564	0.769
COc1nnc2ccc(N3CCC(c4ccc(OCCN5CCN(C)C(=O)[C@H]5C)cc4)CC3)nn12 [AZD5153] + Cc1c2c(nn1C)CSCc1cc(n(C)n1)CSc1cc(c3ccccc3c1)OCCCc1c(C(=O)O)n(C)c3c-2c(Cl)ccc13 [AZD5991] (first compound max 1 µM, 7x7, partner max 1 µM)	0.344	0.922	0.847	0.76	0.729	0.653	0.941	0.498	0.734	0.545	0.514	1	–	0.804	0.917	0.719	0.414	0.91	0.631	0.994
C[C@@H](c1ccc2nccn2c1)n1nnc2ncc(-c3cnn(C)c3)nc21 [Savolitinib] + Cc1c2c(nn1C)CSCc1cc(n(C)n1)CSc1cc(c3ccccc3c1)OCCCc1c(C(=O)O)n(C)c3c-2c(Cl)ccc13 [AZD5991] (first compound max 1 µM, 7x7, partner max 1 µM)	0.146	0.602	0.422	0.128	0.188	0.21	0.606	0.345	0.337	0.196	0.242	1	–	0.523	0.152	0.265	0.218	0.126	0.12	0.275
COc1cc2ncnc(Nc3ccc(F)c(Cl)c3)c2cc1OCCCN1CCOCC1 [Gefitinib] + CC(C)n1c(=O)n(C)c2cnc3cc(F)c(-c4ccc(OCCCN5CCCCC5)nc4)cc3c21 [AZD1390] (first compound max 10 µM, 7x7, partner max 0.3 µM)	0.131	0.176	0.981	0.411	0.486	0.158	0.24	0.256	0.369	0.298	0.143	0.433	–	0.615	0.068	0.0376	0.241	0.0288	0.203	0.0797
C=CCn1c(=O)c2cnc(Nc3ccc(N4CCN(C)CC4)cc3)nc2n1-c1cccc(C(C)(C)O)n1 [AZD1775] + O=C(c1cc(Cc2n[nH]c(=O)c3ccccc23)ccc1F)N1CCN(C(=O)C2CC2)CC1 [Olaparib] (first compound max 1 µM, partner max 10 µM)	0.374	0.705	0.366	0.401	0.679	0.333	0.972	0.649	0.501	0.506	0.174	0.85	0.879	–	0.811	0.382	0.343	0.636	0.657	0.438
